What all share (assay type): in vivo
Assay [1] has as its system kochia (Kochia scoparia). Briefly: Test A preemergence, visual injury rating. Particulars: 0 to 100 scale (0 no effect, 100 complete control). An excerpt: (§1) Seeds of plant species selected from barnyardgrass (Echinochloa crus-galli), kochia (Kochia scoparia), ragweed (common ragweed, Ambrosia elatior), Italian ryegrass (Lolium multiflorum), large (Lg) crabgrass (Digitaria sanguinalis), giant foxtail (Setaria faberii), morningglory (Ipomoea spp.), pigweed (Amaranthus retroflexus), velvetleaf (Abutilon theophrasti), wheat (Triticum aestivum), and corn (Zea mays) were planted into a blend of loam soil and sand and treated preemergence with a directed soil spray using test chemicals formulated in a non-phytotoxic solvent mixture which included a surfactant.
(§2) At the same time, plants selected from these crop and weed species and also blackgrass (Alopecurus myosuroides), and galium (catchweed bedstraw, Galium aparine) were planted in pots containing the same blend of loam soil and sand and treated with postemergence applications of test chemicals formulated in the same manner. Plants ranged in height from 2 to 10 cm and were in the one- to two-leaf stage for the postemergence treatment. Treated plants and untreated controls were maintained in a greenhouse for approximately 10 days, after which time all treated plants were compared to untreated controls and visually evaluated for injury. Plant response ratings, summarized in Table A, are based on a 0 to 100 scale where 0 is no effect and 100 is complete control. A dash (-) response means no test result.

Assay [2] deals with Italian ryegrass (Lolium multiflorum). The assay can be described thus: Test A preemergence, visual injury rating. Particulars: 0 to 100 scale (0 no effect, 100 complete control).
Text: as §1, §2

The test system of assay [3] is barnyardgrass (Echinochloa crus-galli). Briefly: Test A preemergence, visual injury rating. Particulars: 0 to 100 scale (0 no effect, 100 complete control).
Text: as §1, §2

The test system of assay [4] is pigweed (Amaranthus retroflexus). Briefly: Test A preemergence, visual injury rating. As to conditions: 0 to 100 scale (0 no effect, 100 complete control).
Text: as §1, §2

For assay [5], the system named is ragweed (common ragweed, Ambrosia elatior). Briefly: Test A preemergence, visual injury rating. As to conditions: 0 to 100 scale (0 no effect, 100 complete control).
Text: as §1, §2

Assay [6] has as its system giant foxtail (Setaria faberii). Briefly: Test A preemergence, visual injury rating. As to conditions: 0 to 100 scale (0 no effect, 100 complete control).
Text: as §1, §2

Assay [7] has as its system blackgrass (Alopecurus myosuroides). Briefly: Test A postemergence, visual injury rating. As to conditions: 0 is no effect, 100 is complete control.
Text: as §1, §2

For assay [8], the system named is wheat (Triticum aestivum). The assay can be described thus: Test A postemergence, visual injury rating. As to conditions: 0 is no effect, 100 is complete control.
Text: as §1, §2

In assay [9] the test system is kochia (Kochia scoparia). Briefly: Test A postemergence, visual injury rating. As to conditions: 0 is no effect, 100 is complete control.
Text: as §1, §2

The test system of assay [10] is Italian ryegrass (Lolium multiflorum). The assay can be described thus: Test A postemergence, visual injury rating. As to conditions: 0 is no effect, 100 is complete control.
Text: as §1, §2

Assay [11] deals with corn (Zea mays). The assay can be described thus: Test A postemergence, visual injury rating. Particulars: 0 is no effect, 100 is complete control.
Text: as §1, §2

Assay [12] concerns barnyardgrass (Echinochloa crus-galli). Briefly: Test A postemergence, visual injury rating. Particulars: 0 is no effect, 100 is complete control.
Text: as §1, §2

Assay [13] relates to pigweed (Amaranthus retroflexus). Briefly: Test A postemergence, visual injury rating. As to conditions: 0 is no effect, 100 is complete control.
Text: as §1, §2

Assay [14] has as its system ragweed (common ragweed, Ambrosia elatior). Briefly: Test A postemergence, visual injury rating. As to conditions: 0 is no effect, 100 is complete control.
Text: as §1, §2

Assay [15] relates to galium (catchweed bedstraw, Galium aparine). The assay can be described thus: Test A postemergence, visual injury rating. Particulars: 0 is no effect, 100 is complete control.
Text: as §1, §2

For assay [16], the system named is giant foxtail (Setaria faberii). Briefly: Test A postemergence, visual injury rating. As to conditions: 0 is no effect, 100 is complete control.
Text: as §1, §2

As to `CC(C)(C)OC(=O)c1c(Br)cccc1Oc1ncc(Cl)cn1` [Compound 14], in assay [1] (500 g ai/ha), the “Kochia plant response rating” value was 70. Further, the “Ryegrass, Italian plant response rating” value in assay [2] (500 g ai/ha) was 20. The “Barnyardgrass plant response rating” value in [3] (500 g ai/ha) was 60. In addition, the “Pigweed plant response rating” value in [4] (500 g ai/ha) turned out to be 100. Also, in [5] (500 g ai/ha), the “Ragweed plant response rating” value was found to be 10. In addition, the “Foxtail, Giant plant response rating” value in [6] (500 g ai/ha) turned out to be 100. For the same compound, the “Blackgrass plant response rating (0 to 100 scale)” value in [7] (500 g ai/ha) was 70. Moreover, the “Wheat plant response rating (0 to 100 scale)” value in [8] (500 g ai/ha) came to 40. Also, the “Kochia plant response rating (0 to 100 scale)” value in assay [9] (500 g ai/ha) came to 70. Further, the “Ryegrass, Italian plant response rating (0 to 100 scale)” value in assay [10] (500 g ai/ha) is reported as 70. The “Corn plant response rating (0 to 100 scale)” value in assay [11] (500 g ai/ha) amounted to 10. For the same compound, the “Barnyardgrass plant response rating (0 to 100 scale)” value in assay [12] (500 g ai/ha) is 40. Moreover, the “Pigweed plant response rating (0 to 100 scale)” value in assay [13] (500 g ai/ha) is recorded as 100. Also, the “Ragweed plant response rating (0 to 100 scale)” value in [14] (500 g ai/ha) is given as 0. Also, the “Galium plant response rating (0 to 100 scale)” value in assay [15] (500 g ai/ha) turned out to be 100. In addition, the “Foxtail, Giant plant response rating (0 to 100 scale)” value in [16] (500 g ai/ha) is 60.

In the case of `O=C(OCCC(F)(F)F)c1ccccc1Oc1ncc(Cl)cn1` [Compound 17], the “Kochia plant response rating” value in assay [1] (125 g ai/ha) and in assay [1] (500 g ai/ha) was 0 each time. Also, the “Ryegrass, Italian plant response rating” value in assay [2] (125 g ai/ha) and in [2] (500 g ai/ha) was 0 in each case. The “Barnyardgrass plant response rating” value in [3] (125 g ai/ha) and in assay [3] (500 g ai/ha) was 0 throughout. Also, the “Pigweed plant response rating” value turned out to be 0 in assay [4] (125 g ai/ha) and 10 in assay [4] (500 g ai/ha). Besides, the “Ragweed plant response rating” value in assay [5] (125 g ai/ha) and in assay [5] (500 g ai/ha) was 0 each time. The “Foxtail, Giant plant response rating” value in assay [6] (125 g ai/ha) and in assay [6] (500 g ai/ha) was 0 throughout. In addition, the “Blackgrass plant response rating (0 to 100 scale)” value in assay [7] (125 g ai/ha) and in assay [7] (500 g ai/ha) was 0 throughout. In addition, the “Wheat plant response rating (0 to 100 scale)” value in [8] (125 g ai/ha) and in [8] (500 g ai/ha) was 0 each time. The “Kochia plant response rating (0 to 100 scale)” value in assay [9] (125 g ai/ha) and in assay [9] (500 g ai/ha) was 0 throughout. For the same compound, the “Ryegrass, Italian plant response rating (0 to 100 scale)” value in assay [10] (125 g ai/ha) and in [10] (500 g ai/ha) was 0 throughout. Moreover, the “Corn plant response rating (0 to 100 scale)” value worked out at 0 in assay [11] (125 g ai/ha) and 20 in assay [11] (500 g ai/ha). The “Barnyardgrass plant response rating (0 to 100 scale)” value in assay [12] (125 g ai/ha) and in [12] (500 g ai/ha) was 0 each time. Besides, the “Pigweed plant response rating (0 to 100 scale)” value is 20 in assay [13] (125 g ai/ha) and 40 in [13] (500 g ai/ha). For the same compound, the “Ragweed plant response rating (0 to 100 scale)” value in [14] (125 g ai/ha) and in assay [14] (500 g ai/ha) was 0 throughout. For the same compound, the “Galium plant response rating (0 to 100 scale)” value in assay [15] (125 g ai/ha) and in assay [15] (500 g ai/ha) was 0 each time. In addition, the “Foxtail, Giant plant response rating (0 to 100 scale)” value in [16] (125 g ai/ha) and in assay [16] (500 g ai/ha) was 0 each time.

These data come from patent publication US11053204B2, “Pyrimidinyloxy benzene derivatives as herbicides” (FMC Corporation, priority 2015, dated 2021).
